Article PMC6467514 (Chembiochem : a European journal of chemical biology, 2019)
Blank lines part the entries; values can stand above or below the compound they belong to.

Assays:
[1] = target: T1, adenosine deaminase (ADA) (Bos taurus, UniProt P56658); experiment: fluorescence assay of tzA to tzI deamination, IC50 with Hill fit; type: biochemical
T1 sequence (P56658 2-363): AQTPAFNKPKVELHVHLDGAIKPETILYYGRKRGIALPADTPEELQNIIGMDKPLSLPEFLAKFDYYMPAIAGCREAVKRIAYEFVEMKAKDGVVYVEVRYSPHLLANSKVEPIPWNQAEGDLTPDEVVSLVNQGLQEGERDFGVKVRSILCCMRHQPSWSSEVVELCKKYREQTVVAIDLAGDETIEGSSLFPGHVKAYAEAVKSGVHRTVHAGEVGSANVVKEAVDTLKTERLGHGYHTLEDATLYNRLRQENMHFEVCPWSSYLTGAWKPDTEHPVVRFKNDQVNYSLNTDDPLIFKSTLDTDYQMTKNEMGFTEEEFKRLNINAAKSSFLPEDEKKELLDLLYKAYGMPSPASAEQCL

[2] = target: T1, adenosine deaminase (ADA); experiment: stopped-flow fluorescence kinetics of deamination to tzG; type: biochemical
[3] = target: T1, adenosine deaminase (ADA); experiment: biochemical
[4] = target: T1, adenosine deaminase (ADA); experiment: fluorescence assay of tzA to tzI deamination, IC50 with Hill fit; type: biochemical; remark: listed apart in the source

IC50 [1]: 21 ± 8 µM
Structure (SMILES): CNc1cc(Cl)nc2c1ncn2[C@@H]1O[C@H](CO)[C@@H](O)[C@H]1O [compound 8, 5-chloro-7-methylamino-1-deaza-purine riboside]

Structure (SMILES): Nc1nc(N)c2nsc([C@@H]3O[C@H](CO)[C@@H](O)[C@H]3O)c2n1 [tz2-AA]
stopped-flow fluorescence kinetics of deamination to tzG [2]: the ^tz2-AA HMM curve showed parabolic behaviour with increasing substrate concentration

IC50 [3]: 0.0232 ± 0.0042 µM
Structure (SMILES): CCCCCC[C@H]([C@H](C)O)n1cnc2c(N)ncnc21 [EHNA]

IC50 [4]: 220 ± 70 µM
Structure (SMILES): OC[C@H]1O[C@@H](n2cnc3c(NCc4ccccc4)cc(Cl)nc32)[C@H](O)[C@@H]1O [compound 11, 5-chloro-7-benzylamino-1-deaza-purine riboside]
